Measurements as given in article PMC7216583 (Parasites & Vectors, 2020).
Structures can show the parent of a compound that is named as a salt. Where two headings read alike, the source gives them in different places.

Columns and labels:
c-Kit [1] = system: c-Kit; set-up: method as in S-inhibitor catalog; conditions: vendor brief description; ref S-inhibitor catalog; cited from earlier work
Syk = system: Syk; set-up: method as in S-inhibitor; conditions: ref S-inhibitor; cited from earlier work
HDAC = system: HDAC; set-up: method as in S-inhibitor catalog; conditions: vendor brief description; ref S-inhibitor catalog; cited from earlier work
[2] = system: Toxoplasma gondii RH-2F tachyzoites; test: microbe, parasite or virus in culture; conditions: 72 h
ErbB1 = system: ErbB1; set-up: method as in S-inhibitor catalog; conditions: vendor brief description; ref S-inhibitor catalog; cited from earlier work
ErbB2 = system: ErbB2; set-up: method as in S-inhibitor catalog; conditions: vendor brief description; ref S-inhibitor catalog; cited from earlier work
CDK1 = system: CDK1; set-up: method as in S-inhibitor catalog; conditions: vendor brief description; ref S-inhibitor catalog; cited from earlier work
CDK9 = system: CDK9; set-up: method as in S-inhibitor catalog; conditions: vendor brief description; ref S-inhibitor catalog; cited from earlier work
mTOR = system: mTOR; set-up: method as in S-inhibitor; conditions: ref S-inhibitor; cited from earlier work
CYP17 = system: CYP17; set-up: method as in S-inhibitor catalog; conditions: vendor brief description; ref S-inhibitor catalog; cited from earlier work
in vitro = conditions: human; for viability at 72 h: Host viability (%) mean
VEGFR2 [3] = system: VEGFR2; set-up: method as in S-inhibitor catalog; conditions: vendor brief description; ref S-inhibitor catalog; cited from earlier work
HIV protease = target: HIV protease; set-up: method as in S-inhibitor; conditions: ref S-inhibitor; cited from earlier work
Aurora A = system: Aurora A; set-up: method as in S-inhibitor; conditions: ref S-inhibitor; cited from earlier work
VEGFR2 [4] = system: VEGFR2; set-up: method as in S-inhibitor; conditions: ref S-inhibitor; cited from earlier work
c-Met [5] = system: c-Met; set-up: method as in S-inhibitor; conditions: ref S-inhibitor; cited from earlier work
CDK7 = system: CDK7; set-up: method as in S-inhibitor; conditions: ref S-inhibitor; cited from earlier work
Ret = system: Ret; set-up: method as in library vendor description; conditions: ref library vendor description; cited from earlier work
Aurora C = system: Aurora C; set-up: method as in library vendor description; conditions: ref library vendor description; cited from earlier work
PI3Kδ = system: PI3Kδ; set-up: method as in library vendor description; conditions: ref library vendor description; cited from earlier work
Abl = system: Abl; set-up: method as in S-inhibitor; conditions: ref S-inhibitor; read-out: IC50, Abl; cited from earlier work
HSP90 = system: HSP90; set-up: method as in S-inhibitor catalog; conditions: vendor brief description; ref S-inhibitor catalog; cited from earlier work
c-Kit [6] = system: c-Kit; set-up: method as in library vendor description; conditions: ref library vendor description; cited from earlier work
PDGFR = conditions: read-out: IC50 PDGFR; ref library vendor description; cited from earlier work
c-Met [7] = system: c-Met; set-up: method as in S-inhibitor catalog; conditions: vendor brief description; ref S-inhibitor catalog; cited from earlier work
HDAC8 = system: HDAC8; set-up: method as in S-inhibitor; conditions: ref S-inhibitor; cited from earlier work
EGFR = system: EGFR; set-up: method as in library vendor description; conditions: ref library vendor description; cited from earlier work
VEGFR2 [8] = system: VEGFR2; set-up: method as in library vendor description; conditions: ref library vendor description; cited from earlier work
FGFR1 [9] = system: FGFR1; set-up: method as in library vendor description; conditions: ref library vendor description; cited from earlier work
VEGFR1 = system: VEGFR1; set-up: method as in library vendor description; conditions: ref library vendor description; cited from earlier work
CDK = system: CDK; set-up: method as in S-inhibitor catalog; conditions: vendor brief description; ref S-inhibitor catalog; cited from earlier work
5-HT2B = system: 5-HT2B; set-up: method as in S-inhibitor catalog; conditions: vendor brief description; ref S-inhibitor catalog; cited from earlier work
hTRPV1 = system: hTRPV1; set-up: method as in S-inhibitor catalog; conditions: in HEK293 cells; vendor brief description; ref S-inhibitor catalog; cited from earlier work
[10] = system: Toxoplasma gondii RH-2F tachyzoites; conditions: 5 μM, 72 h
OX1 = target: OX1; set-up: method as in S-inhibitor; conditions: ref S-inhibitor, cited from earlier work
p110β = system: p110β; set-up: method as in S-inhibitor; conditions: ref S-inhibitor; cited from earlier work
p110γ = system: p110γ; set-up: method as in S-inhibitor; conditions: ref S-inhibitor; cited from earlier work
FGFR1 [11] = conditions: read-out: IC50, FGFR1; vendor brief description; ref S-inhibitor catalog; cited from earlier work
[12] = read-out: Parasite inhibition (%) mean, preliminary screen of compound library, mean
[13] = read-out: Parasite inhibition (%) mean, preliminary screen, mean

## CN1CCN(c2ccc3nc(-c4c(N)c5c(F)cccc5[nH]c4=O)[nH]c3c2)CC1
c-Kit [1]
  IC50: 2 nM

## CC(C)[C@H](C(=O)Nc1ccc(C(=O)NO)cc1)c1ccccc1 [AR-42 (HDAC-42)]
HDAC
  IC50: 30 nM
[2]; [12]
  inhibition of growth at 5 µM: 61%

## C[C@@H]1COC(Nc2ccc3ncnc(Nc4ccc(OCc5nccs5)c(Cl)c4)c3c2)=N1 [ARRY334543]
ErbB1
  IC50: 7 nM
ErbB2
  IC50: 2 nM
[2]; [12]
  inhibition of growth at 5 µM: 12.4%

## Cc1ncc(-c2ccnc(Nc3ccc(S(C)(=O)=O)cc3)n2)n1C(C)C [AZD5438]
CDK1
  IC50: 16 nM
CDK9
  IC50: 20 nM
[2]; [12]
  inhibition of growth at 5 µM: 6.8%

## COc1ccc(-c2ccc3c(N4CCOC[C@@H]4C)nc(N4CCOC[C@@H]4C)nc3n2)cc1CO [AZD8055]
mTOR
  IC50: 0.8 nM
[2]; [13]
  inhibition of growth at 5 µM: 45.7%

## CC(=O)O[C@H]1CC[C@@]2(C)C(=CC[C@H]3[C@H]2CC[C@]2(C)C(c4cccnc4)=CC[C@@H]32)C1 [Abiraterone Acetate (CB7630)]
CYP17
  IC50: 72 nM
[2]; [12]
  inhibition of growth at 5 µM: 0.7%

## N#CC1(c2ccc(NC(=O)c3cccnc3NCc3ccncc3)cc2)CCCC1 [Apatinib (YN968D1)]
In vitro
  viability at 72 h: 63.8%
VEGFR2 [3]
  IC50: 1 nM
[2]; [12]
  inhibition of growth at 5 µM: 77.6%

## COC(=O)N[C@H](C(=O)N[C@@H](Cc1ccccc1)[C@@H](O)CN(Cc1ccc(-c2ccccn2)cc1)NC(=O)[C@@H](NC(=O)OC)C(C)(C)C)C(C)(C)C [Atazanavir sulfate]
In vitro
  viability: 90.7%
HIV protease
  Ki: 2.66 nM
[2]; [13]
  inhibition of growth at 5 µM: 93.6%

## CCN1CCN(C(=O)Cc2ccc(Nc3ncc(F)c(Nc4ccc(C(=O)Nc5ccccc5Cl)cc4)n3)cc2)CC1 [Aurora A Inhibitor I]
Aurora A
  IC50: 3.4 nM
[2]; [13]
  inhibition of growth at 5 µM: 60.8%

## Nc1nccc(Oc2ccc(NC(=O)c3c[nH]cc(-c4ccc(F)cc4)c3=O)cc2F)c1Cl [BMS 794833]
In vitro
  viability at 72 h: 70.6%
VEGFR2 [4]
  IC50: 15 nM
c-Met [5]
  IC50: 1.7 nM
[2]; [13]
  inhibition of growth at 5 µM: 88.4%

## CC(C)c1cnn2c(NCc3ccccc3)cc(NCCCCCCN)nc12 [BS-181 HCl]
CDK7
  IC50: 21 nM
[2]; [13]
  inhibition of growth at 5 µM: 5.7%

## CO[C@@H](C(=O)N1Cc2n[nH]c(NC(=O)c3ccc(N4CCN(C)CC4)cc3)c2C1)c1ccccc1 [Danusertib (PHA-739358)]
In vitro
  viability at 72 h: 78.8%
Ret
  IC50: 31 nM
Aurora C
  IC50: 61 nM
[2]; [13]
  inhibition of growth at 5 µM: 77.5%

## C[C@]12CC[C@H](O)CC1=CCC1C2CC[C@]2(C)C(n3cnc4ccccc43)=CCC12 (stereo partly drawn) [Galeterone (TOK-001)]
CYP17
  IC50: 300 nM
[2]; [12]
  inhibition of growth at 5 µM: 0.4%

## Cc1ccccc1-n1c(Cn2cnc3c(N)ncnc32)nc2cccc(C)c2c1=O [IC-87114]
PI3Kδ
  IC50: […]
[2]; [13]
  inhibition of growth at 5 µM: 11.1%

## O=C(c1ccc(/C=C/c2n[nH]c3ccccc23)cc1)N1CCNCC1 [KW 2449]
In vitro
  viability at 72 h: 55.6%
Aurora A
  IC50: 48 nM
Abl
  IC50: 14 nM
[2]; [13]
  inhibition of growth at 5 µM: 70.2%

## CCc1c(O)cc(O)c(C(=O)c2ccc(OCCN3CCOCC3)c(OC)c2)c1CC(=O)N(CCOC)CCOC [KW-2478]
HSP90
  IC50: 3.8 nM
[2]; [12]
  inhibition of growth at 5 µM: 7.8%

## Cc1cccc(C)c1OCC(=O)N[C@@H](Cc1ccccc1)[C@@H](O)C[C@H](Cc1ccccc1)NC(=O)[C@H](C(C)C)N1CCCNC1=O [Lopinavir (ABT-378)]
HIV protease
  Ki: 0.0013 nM
[2]; [13]
  inhibition of growth at 5 µM: 0.9%

## CN(C)c1ccc(C(=O)NCCCCCCC(=O)NO)cc1 [M344]
HDAC
  IC50: 100 nM
[2]; [12]
  inhibition of growth at 5 µM: 44.6%

## CC1(C)CNc2cc(NC(=O)c3cccnc3NCc3ccncc3)ccc21 [Motesanib Diphosphate (AMG-706)]
c-Kit [6]
  IC50: 8 nM
PDGFR
  IC50: 84 nM
[2]; [13]
  inhibition of growth at 5 µM: -36.6%

## Cn1cc(-c2ccc3ncc(Cc4ccc5ncccc5c4)n3n2)cn1 [NVP-BVU972]
c-Met [7]
  IC50: 14 nM
[2]; [12]
  inhibition of growth at 5 µM: 38.8%

## COc1ccc(Cn2ccc3ccc(C(=O)NO)cc32)cc1 [PCI-34051]
HDAC8
  IC50: 10 nM
[2]; [13]
  inhibition of growth at 5 µM: 5.7%

## COc1cc2ncnc(Nc3cccc(Br)c3)c2cc1OC [PD153035 HCl]
EGFR
  IC50: […]
[2]; [13]
  inhibition of growth at 5 µM: -9.7%

## CCN(CC)CCCCNc1ncc2cc(-c3cc(OC)cc(OC)c3)c(NC(=O)NC(C)(C)C)nc2n1 [PD173074]
In vitro
  viability at 72 h: 58.8%
VEGFR2 [8]
  IC50: 100 to 200 nM
FGFR1 [9]
  IC50: […]
[2]; [13]
  inhibition of growth at 5 µM: 76.8%

## Cc1ccc(Nc2nccc(N(C)c3ccc4c(C)n(C)nc4c3)n2)cc1S(N)(=O)=O [Pazopanib HCl]
VEGFR1
  IC50: 10 nM
PDGFR
  IC50: 84 nM
[2]; [13]
  inhibition of growth at 5 µM: -2.6%

## COc1cc(Nc2ncc(F)c(Nc3ccc4c(n3)NC(=O)C(C)(C)O4)n2)cc(OC)c1OC [R406 (free base)]
Syk
  IC50: 41 nM

## COc1ccc(F)c(F)c1C(=O)c1cnc(NC2CCN(S(C)(=O)=O)CC2)nc1N [R547]
CDK
  IC50: 80 nM
  Ki: 1 to 3 nM
[2]; [12]
  inhibition of growth at 5 µM: 11.7%

## CC(C)c1cc(-c2ccc(F)c3ccccc23)nc(N)n1 [RS-127445]
5-HT2B
  pIC50, 5-HT2B: 10.4
  pKi, 5-HT2B: 9.5
[2]; [12]
  inhibition of growth at 5 µM: -0.7%

## O=C(Nc1ccccc1Br)N[C@@H]1CCN(c2ccc(C(F)(F)F)cn2)C1 [SB705498]
hTRPV1
  pIC50, hTRPV1: 7.1
  pKi, hTRPV1: 7.6
[2]; [12]
  inhibition of growth at 5 µM: 0.6%

## Cc1cc(NC(=O)Nc2ccc(N(C)C)cc2)c2cc(F)cc(F)c2n1 [SB-408124, reference compound]
[10]
  effect on T. gondii growth in the screen: no effect on T. gondii growth
OX1; membrane
  Ki: 27 nM
OX1; whole cell
  Ki: 57 nM
[2]; [13]
  inhibition of growth at 5 µM: -80.4%

## COc1cc(Nc2nc3ccccc3nc2NS(=O)(=O)c2ccc(NC(=O)c3ccc(C)c(OC)c3)cc2)cc(OC)c1 [XL765 (SAR245409)]
mTOR
  IC50: 157 nM
p110β
  IC50: 113 nM
p110γ
  IC50: 9 nM
[2]; [13]
  inhibition of growth at 5 µM: 46.6%

## AZD4547
FGFR1 [11]
  IC50: 0.2 nM
